{"source": "patent US6428819B1", "about": "“Plant extracts for the preparation of pharmaceutical compositions for the treatment of hepatitis” (priority 1996, dated 2002)", "origin": "cited, not measured here", "molecules": {"B1": {"name": "IFN-gamma: interferon gamma with known antiviral activity (protein, UniProt P01579 24-161, looked up)", "Interferon gamma": "QDPYVKEAENLKKYFNAGHSDVADNGTLFLGILKNWKEESDRKIMQSQIVSFYFKLFKNFKDDQSIQKSVETIKEDMNVKFFNSNKKKRDDFEKLTNYSVTDLNVQRKAIHELIQVMAELSPAAKTGKRKRSQMLFRG"}}, "tested_on": "hepatitis C", "conditions": "literature reports", "data": [{"molecule": "Nc1nc2c(ncn2COCCO)c(=O)[nH]1", "note": "[Acyclovir]", "values": [{"measurement": "treatment outcome in chronic hepatitis", "result": "unsatisfactory"}]}, {"molecule": "B1", "values": [{"measurement": "treatment outcome in chronic hepatitis", "result": "ineffective"}]}]}
